# Experimental data as given in PubChem BioAssay AID624404 (Broad Institute, 2012).
# Records with an inconclusive call do not appear.
# System: D54 LucT luciferase reporter counterscreen, luminescence, 24 h
# Assay: luciferase activators in glycosylation-insensitive reporter cells, dose response, counter-screen for N-linked glycosylation inhibitor project, D54 LucT cells, luminescence, cherry pick (AID 624404)
row,Compound,AC35 [µM]
1,Clc1ccc(CSc2cnnc3ccccc23)cc1Cl,2.09
2,CC12CC[C@H]3[C@@H](CCC4(O)C[C@H](O)CCC34/C=N/NC(=O)c3ccccc3O)C1(O)CCC2C1=CC(=O)OC1 (stereo partly specified),6.22
3,Cn1c(=O)n(C)c2cc(NS(=O)(=O)c3ccc(F)cc3)ccc21,1.24
4,Cn1cc(C(=O)N/N=C/C(Br)=C/c2ccccc2)ccc1=O,3.76
5,CCOC(=O)N1CCN(C(=O)c2cc(-c3ccncc3)nc3ccccc23)CC1,5.63
6,COc1ccc(CNC(=O)c2cccc3c(-c4cccnc4)coc23)cc1OC,2.6
7,O=C(NC1CCCCCC1)c1c2c(nc3ccccc13)CCN(Cc1ccccc1)C2,3.45
8,CC(=O)c1c(C)[nH]c(C(=O)Nc2cccc(S(=O)(=O)N3CCCC3)c2)c1C,3.95
9,Cc1cccc(/C=N\Nc2cn[nH]c(=O)c2Cl)c1,0.163
10,CC(=O)OC1CC[C@]2(C#N)[C@H]3CC[C@]4(C)[C@H](C5C=CC(=O)O5)CCC4(O)C3CCC2(O)C1 (stereo partly specified),2.85
11,CCCC(=O)Nc1nc2ccc(NC(=O)c3c(F)c(F)c(OC)c(F)c3F)cc2s1,2.27
12,CN(Cc1ccccc1)c1nc2c(c(=O)[nH]c(=O)n2C)n1CCCc1ccccc1,0.909
13,CCC(C)C(=O)OC1CCC=C2C=CC(C)C(CCC3CC(O)CC(=O)O3)C21 (stereo unspecified),0.499
14,CCOc1nc(N=C(N)N)nc2c(C)cccc12,0.603
15,C[C@H](CO)N1C[C@H](C)[C@@H](CN(C)S(=O)(=O)c2ccccc2)Oc2c(NC(=O)Cc3ccccc3)cccc2C1=O,2.24
16,Cc1cccc(NC(=O)c2cnn3ccccc23)c1C,0.532
17,Cn1nc(-c2ccccc2)c(CSc2ccccc2Cl)c1Cl,1.12
18,CCc1ccc(N2C(=O)NC(=O)/C(=C\C=C\c3ccco3)C2=O)cc1,1.74
19,O=C(Nc1ccccc1N1CCOCC1)c1ccc2nc[nH]c2c1,0.852
20,O=C(COC(=O)Cn1cnc2ccccc21)Nc1cccc2c1C(=O)c1ccccc1C2=O,0.459
21,Cc1nn(-c2ccccc2)c(Cl)c1/C=N/Nc1nc2ccccc2[nH]1,0.0235
22,CCc1ccc(C(=O)Nc2ccc3c(c2)n(C)c(=O)n3C)cc1,2.63
23,Cc1nc(-c2ccccc2)sc1-c1nc(-c2ccncc2)ncc1S(=O)(=O)c1ccccc1,0.411
24,O=C(/C=C/Sc1ccccc1)c1ccc(Cl)cc1,0.37
25,O=C(Nc1ncccc1O)c1ccc(S(=O)(=O)Nc2ccccc2)cc1,2.19
26,C=CCNc1nc2cc(-c3ccccc3C)sc2c(=O)n1C,1.11

row,Compound,AC35 [µM]
1,COc1ccc([C@@H]2[C@@H]3C(=O)N(C(C)(C)C)C(=O)[C@@H]3[C@]3(Cc4ccccc4)C(=O)N(c4cccc(Cl)c4)C(=O)N23)cc1,2.18
2,CCN(CC)c1ccc(/C=N/NC(=O)c2cnccn2)cc1,0.0537
3,COc1ccc(Cl)cc1/C=C/c1ccc2cccc(O)c2n1,0.0221
4,COc1ccc(-n2c(=S)[nH]c3cc(C(=O)Nc4ccc(F)cc4)ccc3c2=O)c(OC)c1,1.47
5,COc1cc(C(=O)NC2CCN(C)CC2)ccc1Nc1ncc2c(n1)N(C1CCCCC1)CCC(=O)N2C,0.0305
6,O=C1c2ccccc2C(=O)N1Cc1cnc(N2CCN(c3ccccc3)CC2)s1,2.89
7,CCOc1ccc(N2CCc3c(C)nc(SC)nc32)cc1,3.06
8,Cc1nnc2n(c1=O)N=C(c1ccc(Cl)cc1)CS2,0.0335
9,c1ccc(N=Nc2ccc3cccccc2-3)cc1,0.355
10,c1ccc2c(-c3nc4ccccc4[nH]3)cccc2c1,0.911
11,Nc1cc2c(cc1Br)-c1c(C(=O)O)cccc1C2O (stereo unspecified),2.68
12,COC(=O)[C@@H]1C[C@H]1[C@@H](NP(=O)(c1ccccc1)c1ccccc1)c1ccccc1,3.1
13,COc1ccc(Nc2nc(N)c(C(=O)c3ccc(OC)cc3)s2)cc1,0.148
14,COCCCNC(=O)c1ccc(-c2c(C)noc2C)c2ccoc12,2.33
15,COc1ccc(C2NC(=S)NC3=C2CCCC3=C2SCCS2)cc1 (stereo unspecified),0.186
16,O=C1[C@H]2[C@@H](c3ccc(F)cc3)N3C(=O)N(c4cccc(Br)c4)C(=O)[C@@]3(Cc3ccccc3)[C@H]2C(=O)N1C1CCCCC1,0.48
17,COc1ccc([C@@H]2[C@@H]3C(=O)N(C(C)(C)C)C(=O)[C@@H]3[C@]3(Cc4ccccc4)C(=O)N(c4cccc(Br)c4)C(=O)N23)cc1,0.762
18,CC(C)(C)c1ccc(OCc2ccc(C(=O)N3CCOCC3)o2)cc1,1.46
19,Cc1[nH]c2ccccc2c1/C=N/NC(=O)c1cc(-c2ccncc2)nc2ccccc12,2.06
20,Cc1ccc(-c2nc(NCCN(C)C)c3ccccc3n2)cc1,4.45
21,Cc1cc(=O)[nH]c2c(C)cc(S(=O)(=O)N3CCCCC3)cc12,0.411
22,Cc1cc(C)cc(N=Cc2ccc([N+](=O)[O-])s2)c1,0.724
23,C[C@]1(O)CC(=O)C=C[C@H]1Nc1ccccc1,1.97
24,CC1CN(C(=O)c2ccc(COc3ccc4ccccc4c3)o2)CC(C)O1 (stereo unspecified),0.306
25,O=C(NCCCN1CCOCC1)c1cc(-c2ccccc2)on1,3.04
26,Cc1cccc([C@@H]2[C@@H]3C(=O)N(Cc4ccccc4)C(=O)[C@@H]3[C@]3(Cc4ccccc4)C(=O)N(c4cccc(F)c4)C(=O)N23)c1,4.36

row,Compound,AC35 [µM]
1,CCOC(=O)N/N=C/c1ccc(N(CC)CC)cc1O,2.58
2,Cc1ccc(S(=O)(=O)N2CCN(C(=O)COC(=O)c3cc([N+](=O)[O-])ccc3NCCO)CC2)c(C)c1,1.46
3,CCOC(=O)[C@H]1[C@H]2COc3ccc(OC)cc3[C@@H]2N2C(=O)c3cc(OC)c(OC)cc3NC(=O)[C@@]12C,3.03
4,Cc1nnc2ccc(-c3ccc(NC(=O)c4ccco4)cc3)nn12,0.644
5,NC(=O)CC(NC(=O)Cc1ccc(Br)cc1)c1ccc(NC2CCCC2)c([N+](=O)[O-])c1 (stereo unspecified),2.87
6,COc1cc2cnc(-c3ccccc3)cc2cc1OC,2.54
7,CC(=O)Nc1ccc2cc3ccc(NC(C)=O)cc3nc2c1,0.838
8,CC(=O)c1ccc(N2CCN(C(=O)c3cccc(Oc4ccccc4)c3)CC2)cc1,1.27
9,CCOc1ccc2[nH]c3c(N4CCc5ccccc5C4)ncnc3c2c1,4.26
10,COc1cccc(C2=NOC(C(=O)NCc3ccccc3)C2)c1 (stereo unspecified),0.102
11,CC(=O)NC(=C(Cl)Cl)S(=O)(=O)c1ccccc1,3.67
12,Cn1c(=O)[nH]c(=O)c2c1nc(N1CCN(Cc3ccccc3)CC1)n2CCCc1ccccc1,0.465
13,COc1cc2c(cc1OC)C(c1ccccc1)N(C(=O)c1ccco1)CC2 (stereo unspecified),0.375
14,CN(Cc1ccccc1)c1nc2c(c(=O)n(C)c(=O)n2C)n1CCCc1ccccc1,0.893
15,c1ccc(C2=Nn3c(nnc3-c3n[nH]c4c3CCC4)SC2)cc1,2.25
16,COc1ccc2c(c1)OC[C@H]1[C@H]2N2C(=O)c3ccc(C)cc3NC(=O)[C@@]2(C)[C@H]1c1ccccc1,0.658
17,Cc1ccc(S(=O)(=O)NC2=C(N3CCN(Cc4ccccc4)CC3)C(=O)c3ccccc3C2=O)cc1,2.54
18,Cc1ccc2c(CC(=O)NCc3ccco3)coc2c1C,4.46
19,COc1cc2c(cc1OC)C(=O)N1[C@H]3c4ccccc4OC[C@@H]3[C@H](c3ccccc3)[C@]1(C)C(=O)N2,0.196
20,C#CCCOC(=O)N1C2=NC(C(=O)OC)=C(C(=O)OC)[C@@H]3N(C)c4ccccc4[C@]23C[C@H]1C(=O)OC,0.934
21,COc1ccc(/C=C2\CC/C(=C\c3ccc(OC)c(OC)c3)C2=O)cc1OC,0.155
22,COc1ccccc1N=CC1=C(O)CC(c2ccccc2)CC1=O (stereo unspecified),0.173
23,N#Cc1ccc(-c2cccs2)nc1SCc1cccnc1,0.848
24,COc1ccccc1-n1cnc2cc(NCc3cccs3)ccc21,0.266
